Patent publication US4377592A, “Antiarrhythmic activity of cetiedil” (Innothera, priority 1979, dated 1983)
Several values for one entry are separate records, joined by “and”; a condition that tells them apart may be missing. Identical values can stand only once. Like-named read-outs stand apart in the source and are kept apart here.

How the values were obtained:
[1] = system: chloroform-induced ventricular fibrillation; experiment: Chloroform-induced ventricular fibrillation in the mouse; assay type: in vivo
Text: In this technique first described by LAWSON, J. W. in J. Pharm. Exp. Ther. 1968, 160, 22 and Vargaftig, B. B. et al in Eur. J. Pharmacol. 1969, 6, 49, the inhalation of chloroform vapour produced in the mouse apnea followed by ventricular fibrillation.
The mechanism of this technique remains unknown.

[2] = system: polymorphous arrhythmias induced by adrenaline petrol-ether; experiment: Polymorphous arrhythmias induced in the anaesthetised guinea-pig by adrenaline and petrol ether; assay type: in vivo
Text: Adrenaline in high dosage is a powerful arrhythmogenic stimulus to a myocardia induced by petrol ether, as recognized in the guinea-pig by LE MARECHAL J., Thesis Doct.

[3] = system: ventricular tachycardia induced by ouabaine; experiment: Ouabain induced ventricular tachycardia in the anesthetized guinea-pig; assay type: in vivo; conditions: 5 and 10 mg/kg
Description: This test is used to determine the dose of ouabain administered by slow infusion necessary to obtain the appearance of ventricular extrasystoles. The animal used was the guinea pig and the substances were administered intravenously.

[4] = system: atrio-ventricular conduction; experiment: Atrio-ventricular conduction in the anaesthetized dog (Duchene-Marullaz); assay type: in vivo
Text: (§1) The technique of DAWES (modified by ALLIES ET AL.) was used with the isolated guinea-pig atrial, and the technique of DUCHENE-MARULLAZ, J. Pharmacol. Paris, 1970, 1, 539, in the anaesthetized dog. This method is used to study the permeability of atrio-ventricular conduction, and thus more precisely conduction at the level of Tawara's nod.

[5] = system: ventricular fibrillation induced by CaCl2; experiment: Calcium (CaCl2) induced ventricular fibrillation in the anaesthetized rat, Malinow's technique; assay type: in vivo
Description: According to MALINOW, M. R., et coll. Acta. Physiol Latino. Americ.
Using the anaesthetized rat, 200 mg/kg of CaCl2 was injected two minutes after the substances to be tested. The ECG was recorded continuously in lead II.

[6] = Tolerance of normal healthy adult male subjects to cetiedil given by intravenous infusion; assay type: in vivo, human
[7] = system: isolated guinea-pig atrial; experiment: Stimulated isolated guinea pig atrial (technique of Dawes); assay type: cell-based
Text: as §1

[8] = cited from earlier work
in vivo = conditions: mouse, iv
rat aortic fragments [9] = experiment: Contraction of rat aorta fragment induced by potassium depolarisation; assay type: cell-based; conditions: for pD'2: pD'2 = pDx + log (x - 1)
Description: (§2) Fragments of aorta removed from rats are immersed in survival fluid in the presence of carbogene at 37° C. By modifying the ionic equilibrium of the survival medium, it was possible to study the effects of […] on contraction of the aortic fragments induced by depolarisation with potassium or calcium.

[10] = system: rabbit cornea oculo-palpebral reflex; assay type: in vivo; conditions: for TOTAL DEGREE OF ANAESTHESIA FOR 60 minutes: rabbit cornea, total 13 no anaesthesia, 1300 complete
Text: For the purpose of this study, the classical technique of REGNIER J., Thesis Doct. […] This consists of repeating touching of the rabbit cornea until an oculo-palpebral reflex is obtained. It should be noted that […], in common with the reference substances, was used in the form of the HCl Salt.

[11] = system: ventricular tachycardia induced by Ouabain; experiment: Ouabain induced ventricular tachycardia in the dog (Lucchesi and Hardman); assay type: in vivo; conditions: at the average effective dose
Text: The method used is that of […] and HARDMAN, J. Pharmacol. Exp. Ther. 1961, 132, 372-381. Ventricular tachycardia was obtained by the sequential administration of Ouabain until a permanent ventricular tachycardia developed. Following observation of the effect of the substance, the reappearance of this ventricular tachycardia following the injection of insulin was confirmed, thereby showing the persistence within the heart of a toxic dose of Ouabain (Average dose of Ouabain 71.25 γ kg IV).

rat aortic fragments [12] = experiment: Competitive antagonism of calcium dose/effect curve of contraction of rat aortic fragment; assay type: cell-based; conditions: competitive inhibition versus calcium
Description: as §2

For `O=C(OCCN1CCCCCC1)C(c1ccsc1)C1CCCCC1` (stereo not drawn) [citrate monohydrate of α-cyclohexyl-3-thiopheneaceticacid 2-(hexahydro-1H-azepin-1-yl)ethyl ester], the “activity relative to propranolol” value ([1]; chloroform induced fibrillation in the mouse) was “ten times less powerful than propranolol”, the ED50 ([1]; mouse, chloroform vapour inhalation, IP, read-out: ED50) was about 50 mg/kg and the ED50 ([2]; Cavia porcellus, ip, guinea-pig, urethane 1.2 g/kg IP, substance 5 minutes before intoxication, read-out: ED50 (dose decreasing by half the duration of the disturbances)) was about 1.2 mg/kg. For the same compound, the “index I = LD50 IV/ED50” value ([2]; Table 1, adrenaline petrol-ether, guinea-pig ED50, mouse LD50) was 47.50, the “activity relative to the reference β-blocker” value ([2]; guinea pig, adrenaline and petrol-ether) was “three times less active than the reference β-blocker” and the “threshold before the development of cardiac disturbances” value [3] was “significant increase”. The “effect on atrio-ventricular conduction after denervation” value ([4]; anaesthetized dog, denervated) was “not altered by denervation”, the “effect on atrio-ventricular conduction” value ([4]; anaesthetized dog, intact) was “significant depression which was proportional to the dose injected” and the chronotropic effect ([4]; dog) was “absence of any significant negative chronotropic effects”. The “effects on contractile force of the myocardia” value ([4]; dog, doses of 2.5 and 5 mg/kg) was “slight”, the “index LD50/AD50 (ventricular fibrillation)” value ([5]; Table 2) was 18,69 and the “index LD50/AD50 (death)” value ([5]; Table 3) was 16.29. The “AD 50 protection against ventricular fibrillation” value ([5]; anaesthetized rat, CaCl2 200 mg/kg IV two minutes after substance) was 3,50 mg/kg/IV, the ED50 ([5]; anaesthetized rat, CaCl2 200 mg/kg IV two minutes after substance, read-out: AD 50 protection against ventricular fibrillation) was 3.5 mg/kg and the overall safety conclusion ([6]; 0.359 mg/kg infused 9 times over a 10 day-period) was “safe drug”. The “abnormalities in electrocardiograms, blood chemistry, hematologic profiles, urine analyses” value ([6]; 10 volunteers, 0.359 mg/kg, 9 infusions over 10 days) was “no significant abnormalities”, the “subjects with doubtful elevation in SGOT value” ([6]; after completion of study-period, of 10) was 2 subjects and the “average duration of side effects after completion of infusion” value ([6]; after the first infusion) was 72.9 min. For the same compound, the “subjects complaining of side effects” value ([6]; after the first infusion) was 7 subjects, the “duration of side effects” value ([6]; after the ninth infusion) was 15 min and the “subjects complaining of side effects” value ([6]; after the ninth infusion) was 3 subjects. The “K+ level” value ([6]; another subject, after completing the study) was “slight reduction”, the “Ca++ level” value ([6]; one subject, after completing the study) was “minimal elevation” and the systemic blood pressure ([6]; one to four hours after infusion) was “slightly decreased”. For the same compound, the Pulse rate ([6]; usually one hour after the infusion) was “slightly reduced”, the “% DECREASE SPONTANEOUS RATE” value ([7]; concentration 10^-5) was 26% and the “% DECREASE m.f.s. (maximum frequency followed by the atrial)” value ([7]; concentration 10^-5) was 27%. The “% DECREASE SPONTANEOUS RATE” value ([7]; concentration 10^-6) was 6%, the “% DECREASE m.f.s. (maximum frequency followed by the atrial)” value ([7]; concentration 10^-6) was 14% and the “% DECREASE SPONTANEOUS RATE” value ([7]; concentration 10^-7) was 9%. For the same compound, the “% DECREASE m.f.s. (maximum frequency followed by the atrial)” value ([7]; concentration 10^-7) was 6%, the negative bathmotropic effect ([7]; concentration of 1.10^-6) was “identical to that of Quinidine and less than that of Propranolol” and the “share of circulating radio-activity due to a metabolite” value ([8]; 5 minutes after intravenous injection of 0.25 mg) was “half”. For the same compound, the digestive absorbtion ([8]; C14) was “excellent”, the Rectal absorption ([8]; in vivo) was “relatively low, and above all, very slow” and the Biliary excretion ([8]; individual with a biliary drain) was “no more than 11%”. The “terminal half-life of plasma radio-activity” value ([8]; man, 0.25 mg intravenous, C14) was “approximately five”, the “terminal half-life of urinary excretion” value ([8]; man, C14) was about 26 h and the “radio-activity excreted in the urines” value ([8]; man, intact biliary circulation) was “approximately 65%”. The “plasma radioactivity following oral administration” value ([8]; man, versus intravenous injection) was “markedly higher than after intravenous injection”, the urinary excretion ([8]; patient who had undergone surgery) was 42% and the “radio-active transformation substance in urine” value ([8]; urine passed 1 hour following the injection) was 100%. The LD50 (in vivo) was 57 mg/kg, the IC50 (rat aortic fragments [9]; in the presence of 1.26 mM of calcium, read-out: concentration reducing by half the force of contraction) was 6 µM and the “pD'2 (mean)” value (rat aortic fragments [9]; mean ± SD, potassium depolarisation) was 5.23 ± 0.05 and 5.23. For the same compound, the x (rat aortic fragments [9]; single experiment, cetiedil concentration 1 (pDx 6.00)) was 1.16, the “pD'2” value (rat aortic fragments [9]; single experiment, cetiedil concentration 1) was 5.20 and the x (rat aortic fragments [9]; single experiments, cetiedil concentration 5 (pDx 5.30)) was 1.50 and 2.17. For the same compound, the “pD'2” value (rat aortic fragments [9]; single experiments, cetiedil concentration 5) was 5.00 and 5.37, the x (rat aortic fragments [9]; single experiments, cetiedil concentration 10 (pDx 5.00)) was 2.78 and 3.24 and 2.70 and the “pD'2” value (rat aortic fragments [9]; single experiments, cetiedil concentration 10) was 5.25 and 5.35 and 5.23. For the same compound, the “local anaesthetic effects relative to cocaine” value ([10]; rabbit) was “twice as great as those of cocaine”, the “TOTAL DEGREE OF ANAESTHESIA FOR 60 minutes” value ([10]; 0.25 g./100, HCl salt) was 393.2 and the “TOTAL DEGREE OF ANAESTHESIA FOR 60 minutes” value ([10]; 0.50 g./100, HCl salt) was 798.8. For the same compound, the “duration of complete local anaesthesia” value ([10]; rabbit, local instillation, concentration of 0.5%) was 15 min, the “duration of return to sinus rhythm” value [11] was “more than 30 min” and the pA2 (rat aortic fragments [12]) was 6.27.
